SMILES strings stand for the structures.

In assay [1] the test system is global protein synthesis in TamS and TamR cells. Kind of assay: [35S]-methionine metabolic labeling, overall protein synthesis. The assay is classed as cell-based, human. The following applies: 10 μM for 24 hours, [35S]-methionine labeling 30 minutes. The protocol:
Hsp70 (loading control). […] Cells were treated with DMSO, 1 μM 4-OH Tam, 4-OH Tam and CGP 57380 (10 μM), or 1 μM 4-OH Tam, CGP57380, and 20 nM RAD001 therapies 24 hours after plating. Treatment was changed every 72 hours. Colonies were scored after 10 days counting only >50 cells/colony. Results are representative of three independent experiments. SEM is shown. […] Results from three independent experiments. Error bars represent SEM (n.s.=not significant). […] Equal amounts of RNA were resolved by sucrose gradient centrifugation and ribosome profiles monitored by UV absorbance 254 nm. Results are representative images of two independent experiments.
^35S-Methionine Metabolic Protein Labeling: Global protein synthesis was measured as previously described (Ramirez-Valle et al., “eIF4GI Links Nutrient Sensing by mTOR to Cell Proliferation and Inhibition of Autophagy,” J. Cell Biol. 181(2):293-307 (2008), which is incorporated herein by reference in its entirety). Cells (2×10^5) were seeded, in triplicate, into 6-well culture plates and allowed to adhere for 48-72 hours. Cells were labeled with 25 μCi ^355-methionine/cysteine protein labeling mix (PerkinElmer) for 30 minutes at 37° C. using DMEM without L-Methionine or L-Cysteine supplemented with 5% FBS. […] Protein concentration was measured by the BCA assay (Thermo Scientific). […]

For a further assay, the system named is Runx2 mRNA. Put plainly: Runx2 mRNA levels (RT-qPCR) after CGP57380. The class given is cell-based, human. The note with it: treated vs untreated cells. Here is the method:
Quantitative Real-Time PCR (RT-qPCR) and Analysis: RNA was extracted using Trizol as per the manufacturer's instructions. One microgram of RNA was used for reverse transcription reaction using Promega GoScript, as per the manufacturer's instructions. qRT-PCR was completed using iTaq Universal 2× SYBR Green qPCR master mix (Bio-Rad) and an Applied Biosystems 7500 Fast RT-PCR machine as per the manufacturers' instructions. Fold change was calculated using the 2^−ΔΔCt method.
The biological functions of mRNAs identified as highly eIF4E-dependent in tamoxifen-resistant cells were next assessed. Of these, Runx2 was particularly notable because it encodes a protein with a number of activities that could play a role in tamoxifen resistance, as it is an important inhibitor of estrogen signaling and stimulates oncogenic pathways. […] It was also determined whether Runx2 mRNA requires eIF4E S209 phosphorylation by Mnk1. Cells were untreated or treated with CGP57380, and Runx2 mRNA and protein levels were determined.

A further assay deals with p38, JNK1, and RSKs. The note with it: at 10 μM; cited from earlier work.

`Nc1ncnc2n[nH]c(Nc3ccc(F)cc3)c12` [CGP57380]: the “reduction in global protein synthesis” value in assay [1] turned out to be 10%. The “Runx2 mRNA levels” value in the assay on Runx2 mRNA was “no statistically significant difference”. Further, the “inhibitory activity on other families of related kinases (p38, JNK1, and RSKs)” value with p38, JNK1, and RSKs was “no inhibitory activity”.

Source of the values: patent publication US11135224B2, “Methods of sensitizing estrogen receptor positive (ER+) breast cancer cells to endocrine therapy” (New York University, priority 2018, dated 2021).
